Reference: PubChem BioAssay (NCI)
“And” between values parts separate entries of the source, which are not always exact repeats. Equal values may be shown once.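 Interpolation was linear, between the two tested concentrations surrounding the appropriate level; five concentrations were tested over 48 hours in 96-well plates. GI50: concentration for 50% inhibition of growth. TGI is the concentration that stops growth completely.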

How the values were obtained:
Assay in all cases: DTP human tumour cell line panel, 48 h
IGROV1 ovarian = tested on: IGROV1 ovarian
MDA-MB-231 breast = tested on: MDA-MB-231 breast
OVCAR-8 ovarian = tested on: OVCAR-8 ovarian
CCRF-CEM leukemia = tested on: CCRF-CEM leukemia
UACC-62 melanoma = tested on: UACC-62 melanoma
HS 578T breast = tested on: HS 578T breast
NCI-H23 lung = tested on: NCI-H23 lung
HOP-92 NSCLC = tested on: HOP-92 NSCLC
HT29 colon = tested on: HT29 colon
OVCAR-5 ovarian = tested on: OVCAR-5 ovarian

Row | Structure (SMILES) | GI50 (IGROV1 ovarian) | TGI (IGROV1 ovarian) | GI50 (MDA-MB-231 breast) | TGI (MDA-MB-231 breast) | GI50 (OVCAR-8 ovarian) | TGI (OVCAR-8 ovarian) | GI50 (CCRF-CEM leukemia) | TGI (CCRF-CEM leukemia) | GI50 (UACC-62 melanoma) | TGI (UACC-62 melanoma) | GI50 (HS 578T breast) | TGI (HS 578T breast) | GI50 (NCI-H23 lung) | TGI (NCI-H23 lung) | GI50 (HOP-92 NSCLC) | TGI (HOP-92 NSCLC) | GI50 (HT29 colon) | TGI (HT29 colon) | GI50 (OVCAR-5 ovarian) | TGI (OVCAR-5 ovarian)
1 | COc1ncc(-c2ccc3nc(N)n(-c4ccccc4C(F)(F)F)c(=O)c3c2)cc1S(=O)(=O)Nc1ccc(F)cc1F | 1.15 µM | > 100 µM | 0.217 µM | 0.755 µM | 3.55 µM | > 100 µM | 1.28 µM | 32.2 µM | 3.06 µM | 9.59 µM | 1.3 µM | 84.4 µM | 0.693 µM | 38.1 µM | 0.432 µM | 94.5 µM | 0.635 µM | 4.53 µM | 1.03 µM | 9.81 µM
2 | C=C1C(=O)O[C@H]2[C@H]1CC/C(COC(=O)NCc1ccc(Cn3c(=O)sn(CCCI)c3=O)cc1)=C\CC[C@@]1(C)O[C@@H]21 | 1.75 µM | 3.84 µM | 1.75 µM | 3.56 µM | 3.04 µM | 9.87 µM | 0.314 µM | 2.18 µM | 1.41 µM | 2.88 µM | 3.17 µM | 14.5 µM | 2.11 µM | 4.91 µM | 1.22 µM | 2.83 µM | 1.74 µM | 3.31 µM | 1.85 µM | 4.17 µM
3 | CC(=O)Nc1ccc(S(=O)(=O)N2C(=O)CCC2C(=O)Nc2ccccc2)cc1 (stereo unspecified) | 2.32 µM | 26.9 µM | 1.38 µM | 9.49 µM | 2.23 µM | 19 µM | 0.433 µM | 14.2 µM | 0.0523 µM | 10.3 µM | 2.71 µM | 36.2 µM | 2.23 µM | 18.6 µM | 1.48 µM | 5.41 µM | 2.06 µM | 19.4 µM | 3.16 µM | 20.2 µM
4 | Nc1ncnc2c1ncn2C1SC(CO)C(O)C1O (stereo unspecified) | > 100 µM | > 100 µM | 10.9 µM | 34.8 µM | 4 µM | 23.6 µM | > 100 µM | > 100 µM | > 100 µM | > 100 µM | 70.5 µM | > 100 µM | 35.1 µM | > 100 µM | 13.6 µM | 52.4 µM | 10.7 µM | 42.4 µM | > 100 µM | > 100 µM
5 | COc1cc2nc(NC3CCC3)nc(NC3CCN(C(C)C)CC3)c2cc1OC | 7.08 µM | 24 µM | 1.84 µM | 3.79 µM | 3.97 µM | 26.2 µM | 2.21 µM | 5.11 µM | 1.79 µM | 3.35 µM | 2.08 µM | 5.45 µM | 4.61 µM | 17.7 µM | 1.46 µM | 3.64 µM | 1.75 µM | 3.97 µM | 4.01 µM | 19.1 µM
6 | CC[C@@]12CC(C(=O)OC)=C3Nc4ccccc4[C@@]34CCN(C[C@H]3O[C@H]31)[C@@H]24 | 52.3 µM | > 100 µM | 47.6 µM | > 100 µM | > 100 µM | > 100 µM | 33.9 µM | > 100 µM | 17.7 µM | > 100 µM | 25.4 µM | > 100 µM | 60.7 µM | > 100 µM | 17.7 µM | > 100 µM | 29.2 µM | > 100 µM | > 100 µM | > 100 µM
7 | C=C(CN1CCc2ccccc2C1)c1ccc(C(=O)Nc2cccc(N)c2)cc1 | 16 µM | 47.2 µM | 18.1 µM | 44.8 µM | 20.6 µM | 44.7 µM | 16.4 µM | > 100 µM | 17.1 µM | 33.3 µM | 24.7 µM | 58.1 µM | 19.8 µM | 62.3 µM | 63.9 µM | > 100 µM | 20.4 µM | 94.7 µM | 60.9 µM | > 100 µM
8 | O=c1c2cc(F)ccc2sc2c(NCCCNCCO)nc3ccc(F)cc3c12 | 1.25 µM | 2.65 µM | 1.45 µM | 2.88 µM | 2.09 µM | 4.75 µM | 2.24 µM | 5.08 µM | 1.72 µM | 3.25 µM | 1.79 µM | 4.1 µM | 1.81 µM | 3.28 µM | 1.31 µM | 5.2 µM | 1.82 µM | 3.74 µM | 1.62 µM | 3.04 µM
9 | O=C(N=Nc1c(O)[nH]c2c(Cl)cc(Cl)cc12)C(=O)Nc1cccc(C(F)(F)F)c1 | – | > 100 µM | – | > 100 µM | – | > 100 µM | – | > 100 µM | – | > 100 µM | – | > 100 µM | – | > 100 µM | – | > 100 µM | – | > 100 µM | – | > 100 µM
10 | CC1SC(c2ccc(OCc3ccccc3)cc2)N(NC(=O)C(O)(c2ccccc2)c2ccccc2)C1=O (stereo unspecified) | 2.4 µM | 11.5 µM | 4.31 µM | 15.5 µM | 12.7 µM | 38.6 µM | 2.1 µM | 5.69 µM | 3.69 µM | 16 µM | 1.94 µM | 7.15 µM | 2.7 µM | 13.8 µM | 1.14 µM | 4.74 µM | 3.05 µM | 7.68 µM | 3.81 µM | 16.1 µM
11 | O=C(CNC(=O)c1cccc2ccccc12)Nc1ccccc1Oc1ccc(O)cc1 | 2.33 µM | > 25 µM | 3.18 µM | > 25 µM | 1.31 µM | > 25 µM | 0.94 µM | > 25 µM | 1.17 µM | > 25 µM | 1.34 µM | > 25 µM | 2.16 µM | > 25 µM | > 25 µM | > 25 µM | 0.992 µM | > 25 µM | 6.3 µM | > 25 µM
12 | CS(=O)c1cc(=O)c2ccccc2s1 (stereo unspecified) | – | 34.2 µM | – | 32.8 µM | – | 8.09 µM | – | 4.45 µM | – | 17.6 µM | – | 62.7 µM | – | 15.4 µM | – | 6.7 µM | – | 12.9 µM | – | 18.2 µM
13 | O=C(/C=C/c1ccccc1)c1ccccn1 | – | 22.8 µM and 37.9 µM | 15.6 µM and 35.8 µM | 30.7 µM and > 100 µM | – | 34.6 µM and > 100 µM | – | 45.4 µM and 57.6 µM | – | 36.8 µM and 41.4 µM | – | 77.3 µM | – | 33.3 µM and 35.5 µM | – | 53 µM | – | 28.9 µM and 48.3 µM | 11.5 µM and 24.2 µM | 29 µM and > 100 µM
14 | CN1CC[C@H](N(C)C(=O)N2CC(c3cc(F)ccc3F)=C[C@@]2(CO)c2ccccc2)[C@H](F)C1 | – | > 100 µM | 0.0112 µM | 15.3 µM | 0.058 µM | > 100 µM | 0.017 µM | > 100 µM | 0.0386 µM | 25 µM | 0.0293 µM | 7.88 µM | 0.0371 µM | > 100 µM | 0.143 µM | 79.7 µM | 0.0411 µM | > 100 µM | 0.0669 µM and 0.0212 µM | > 100 µM
